Data: patent US12233057B2, “Small molecules for inhibiting chemokine activity and/or cancer cells growth” (AlonBio Ltd., priority 2015, dated 2025)

Columns and labels:
ACVRL1 (ALK1) = ACVRL1 (ALK1) (Homo sapiens, UniProt P37023); assay: LanthaScreen europium kinase binding assay; conditions: BKT300 at 78% purity
Protocol: (§1) In order to further characterize the effect of BKT300 on cell signaling, kinase profiling of BKT300 (at 78% purity) was performed (by the Life Technologies SelectScreen® Biochemical Profiling Lab) using a LanthaScreen® europium kinase binding assay to screen 440 kinases.
(§2) The principle of the LanthaScreen® assay is depicted in FIG. 13. Binding of an Alexa Fluor® conjugate or “tracer” to a kinase is detected by addition of a europium (Eu)-labeled anti-tag antibody. Binding of the tracer and antibody to a kinase results in a high degree of FRET, whereas displacement of the tracer with a kinase inhibitor results in a loss of FRET. The kinase tracers are based on ATP-competitive kinase inhibitors, making them suitable for detection of any compounds that bind to the ATP site. Inhibitors that bind the ATP site include both Type I kinase inhibitors, which bind solely to the ATP site, and Type II inhibitors (e.g., imatinib, sorafenib, BIRB-796), which bind to both the ATP site and a second site often referred to as the allosteric site.

CDK8/cyclin C = CDK8/cyclin C (Homo sapiens, UniProt P49336); assay: LanthaScreen europium kinase binding assay; conditions: BKT300 at 78% purity
Protocol: as §1, §2

ICK = ICK (Homo sapiens, UniProt Q9UPZ9); assay: LanthaScreen europium kinase binding assay; conditions: BKT300 at 78% purity
Protocol: as §1, §2

TGFBR2 = TGFBR2 (Homo sapiens, UniProt P37173); assay: LanthaScreen europium kinase binding assay; conditions: BKT300 at 78% purity
Protocol: as §1, §2

PIK3CD = PIK3CD (Homo sapiens, UniProt O00329); assay: LanthaScreen europium kinase binding assay; conditions: BKT300 at 78% purity
Protocol: as §1, §2

MLCK (MLCK2) = MLCK (MLCK2) (Homo sapiens, UniProt Q9H1R3); assay: LanthaScreen europium kinase binding assay; conditions: BKT300 at 78% purity
Protocol: as §1, §2

KIT T670E = KIT T670E (Homo sapiens, UniProt P10721, T670E); assay: LanthaScreen europium kinase binding assay; conditions: BKT300 at 78% purity
Protocol: as §1, §2

PIK3CA = PIK3CA (Homo sapiens, UniProt P42336); assay: LanthaScreen europium kinase binding assay; conditions: BKT300 at 78% purity
Protocol: as §1, §2

CLK4 = CLK4 (Homo sapiens, UniProt Q9HAZ1); assay: LanthaScreen europium kinase binding assay; conditions: BKT300 at 78% purity
Protocol: as §1, §2

SRC N1 = SRC N1 (Homo sapiens, UniProt P12931); assay: LanthaScreen europium kinase binding assay; conditions: BKT300 at 78% purity
Protocol: as §1, §2

MAP4K1 (HPK1) = MAP4K1 (HPK1) (Homo sapiens, UniProt Q92918); assay: LanthaScreen europium kinase binding assay; conditions: BKT300 at 78% purity
Protocol: as §1, §2

EPHA8 = EPHA8 (Homo sapiens, UniProt P29322); assay: LanthaScreen europium kinase binding assay; conditions: BKT300 at 78% purity
Protocol: as §1, §2

PAK7 (KIAA1264) = PAK7 (KIAA1264) (Homo sapiens, UniProt Q9P286); assay: LanthaScreen europium kinase binding assay; conditions: BKT300 at 78% purity
Protocol: as §1, §2

DYRK2 = DYRK2 (Homo sapiens, UniProt Q92630); assay: LanthaScreen europium kinase binding assay; conditions: BKT300 at 78% purity
Protocol: as §1, §2

CDC7/DBF4 = CDC7/DBF4 (Homo sapiens, UniProt O00311); assay: LanthaScreen europium kinase binding assay; conditions: BKT300 at 78% purity
Protocol: as §1, §2

STK17A (DRAK1) = STK17A (DRAK1) (Homo sapiens, UniProt Q9UEE5); assay: LanthaScreen europium kinase binding assay; conditions: BKT300 at 78% purity
Protocol: as §1, §2

MAPK10 (JNK3) = MAPK10 (JNK3) (Homo sapiens, UniProt P53779); assay: LanthaScreen europium kinase binding assay; conditions: BKT300 at 78% purity
Protocol: as §1, §2

KIT D820E = KIT D820E (Homo sapiens, UniProt P10721, D820E); assay: LanthaScreen europium kinase binding assay; conditions: BKT300 at 78% purity
Protocol: as §1, §2

NUAK2 = NUAK2 (Homo sapiens, UniProt Q9H093); assay: LanthaScreen europium kinase binding assay; conditions: BKT300 at 78% purity
Protocol: as §1, §2

BMPR1A (ALK3) = BMPR1A (ALK3) (Homo sapiens, UniProt P36894); assay: LanthaScreen europium kinase binding assay; conditions: BKT300 at 78% purity
Protocol: as §1, §2

GRK4 = GRK4 (Homo sapiens, UniProt P32298); assay: LanthaScreen europium kinase binding assay; conditions: BKT300 at 78% purity
Protocol: as §1, §2

MAP4K2 (GCK) = MAP4K2 (GCK) (Homo sapiens, UniProt Q12851); assay: LanthaScreen europium kinase binding assay; conditions: BKT300 at 78% purity
Protocol: as §1, §2

MAP4K4 (HGK) = MAP4K4 (HGK) (Homo sapiens, UniProt O95819); assay: LanthaScreen europium kinase binding assay; conditions: BKT300 at 78% purity
Protocol: as §1, §2

STK38L (NDR2) = STK38L (NDR2) (Homo sapiens, UniProt Q9Y2H1); assay: LanthaScreen europium kinase binding assay; conditions: BKT300 at 78% purity
Protocol: as §1, §2

CDK1/cyclin A2 = CDK1/cyclin A2 (Homo sapiens, UniProt P06493); assay: LanthaScreen europium kinase binding assay; conditions: BKT300 at 78% purity
Protocol: as §1, §2

TTK = TTK (Homo sapiens, UniProt P33981); assay: LanthaScreen europium kinase binding assay; conditions: BKT300 at 78% purity
Protocol: as §1, §2

MYLK (MLCK) = MYLK (MLCK) (Homo sapiens, UniProt Q15746); assay: LanthaScreen europium kinase binding assay; conditions: BKT300 at 78% purity
Protocol: as §1, §2

DAPK1 = DAPK1 (Homo sapiens, UniProt P53355); assay: LanthaScreen europium kinase binding assay; conditions: BKT300 at 78% purity
Protocol: as §1, §2

STK38 (NDR) = STK38 (NDR) (Homo sapiens, UniProt Q15208); assay: LanthaScreen europium kinase binding assay; conditions: BKT300 at 78% purity
Protocol: as §1, §2

GRK5 = GRK5 (Homo sapiens, UniProt P34947); assay: LanthaScreen europium kinase binding assay; conditions: BKT300 at 78% purity
Protocol: as §1, §2

DYRK3 = DYRK3 (Homo sapiens, UniProt O43781); assay: LanthaScreen europium kinase binding assay; conditions: BKT300 at 78% purity
Protocol: as §1, §2

SDF-1 = assay: Migration assay: Jurkat cells towards SDF-1 (Transwell); assay type: cell-based, human; conditions: 10 μg/ml
Protocol: 600 μl of RPMI medium was added to the lower chambers of Transwell® transmigration plates, supplemented with 2 μg/ml of MIP3a, 100 ng/ml of SDF-1 or 10 ng/ml of MCP-1. The tested small molecule was added to the lower chambers at the indicated concentration, except in control samples. The MIP3a, SDF-1 or MCP-1 was incubated with the small molecule for 30 minutes at room temperature before the initiation of the migration assay. Following 30 minutes of incubation 2×10^5 immune cells were added to the upper chambers of the transmigration plates in a total volume of 100 μl. Cells which migrated within 3 hours to the bottom chamber of the Transwell® plates were counted using a FACScalibur™ flow cytometer.
To evaluate migration towards SDF-1, Jurkat cells were re-suspended in RPMI medium containing 1% fetal calf serum (FCS).

Chain of TGFBR2 (P37173 23-567): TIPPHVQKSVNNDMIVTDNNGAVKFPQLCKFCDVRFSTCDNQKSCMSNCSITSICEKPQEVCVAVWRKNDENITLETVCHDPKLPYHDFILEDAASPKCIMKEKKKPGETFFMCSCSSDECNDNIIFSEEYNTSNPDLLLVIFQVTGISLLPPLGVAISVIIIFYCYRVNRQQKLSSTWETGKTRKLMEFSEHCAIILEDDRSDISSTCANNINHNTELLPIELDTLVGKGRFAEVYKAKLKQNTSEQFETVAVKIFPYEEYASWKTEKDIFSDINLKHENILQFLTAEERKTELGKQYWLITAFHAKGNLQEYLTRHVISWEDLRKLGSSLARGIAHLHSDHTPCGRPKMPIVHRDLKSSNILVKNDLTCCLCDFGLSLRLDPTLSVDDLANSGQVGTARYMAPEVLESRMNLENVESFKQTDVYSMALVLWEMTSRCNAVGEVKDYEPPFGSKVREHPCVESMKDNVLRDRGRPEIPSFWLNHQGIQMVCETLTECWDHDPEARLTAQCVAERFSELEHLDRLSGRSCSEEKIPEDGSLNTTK
Chain of KIT T670E (P10721 26-976 T670E): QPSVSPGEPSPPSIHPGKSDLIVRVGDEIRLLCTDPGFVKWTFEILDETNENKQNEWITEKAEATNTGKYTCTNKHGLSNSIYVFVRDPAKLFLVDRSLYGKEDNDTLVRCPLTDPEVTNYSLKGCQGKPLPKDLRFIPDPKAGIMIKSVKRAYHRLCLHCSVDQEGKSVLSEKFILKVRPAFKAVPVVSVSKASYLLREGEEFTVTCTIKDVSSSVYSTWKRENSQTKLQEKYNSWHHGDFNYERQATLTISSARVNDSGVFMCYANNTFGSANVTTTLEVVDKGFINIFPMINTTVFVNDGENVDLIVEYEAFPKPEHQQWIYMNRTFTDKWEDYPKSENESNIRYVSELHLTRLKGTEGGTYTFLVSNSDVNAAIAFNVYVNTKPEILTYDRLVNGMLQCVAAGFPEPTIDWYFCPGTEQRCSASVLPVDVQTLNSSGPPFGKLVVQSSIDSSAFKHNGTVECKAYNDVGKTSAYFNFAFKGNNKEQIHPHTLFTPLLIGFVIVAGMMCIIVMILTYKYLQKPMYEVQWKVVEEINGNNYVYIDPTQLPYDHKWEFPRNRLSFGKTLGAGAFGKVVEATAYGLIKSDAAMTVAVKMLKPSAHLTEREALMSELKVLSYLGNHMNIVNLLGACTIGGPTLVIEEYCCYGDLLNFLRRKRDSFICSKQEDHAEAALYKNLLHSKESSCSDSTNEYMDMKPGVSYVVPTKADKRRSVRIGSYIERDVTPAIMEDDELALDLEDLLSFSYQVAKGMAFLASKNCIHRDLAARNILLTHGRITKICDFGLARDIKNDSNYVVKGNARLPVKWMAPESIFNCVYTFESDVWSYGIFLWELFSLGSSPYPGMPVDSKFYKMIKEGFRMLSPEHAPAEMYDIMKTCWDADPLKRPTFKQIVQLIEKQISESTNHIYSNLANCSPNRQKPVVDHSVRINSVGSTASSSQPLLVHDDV
Chain of STK38 (NDR) (Q15208 whole entry): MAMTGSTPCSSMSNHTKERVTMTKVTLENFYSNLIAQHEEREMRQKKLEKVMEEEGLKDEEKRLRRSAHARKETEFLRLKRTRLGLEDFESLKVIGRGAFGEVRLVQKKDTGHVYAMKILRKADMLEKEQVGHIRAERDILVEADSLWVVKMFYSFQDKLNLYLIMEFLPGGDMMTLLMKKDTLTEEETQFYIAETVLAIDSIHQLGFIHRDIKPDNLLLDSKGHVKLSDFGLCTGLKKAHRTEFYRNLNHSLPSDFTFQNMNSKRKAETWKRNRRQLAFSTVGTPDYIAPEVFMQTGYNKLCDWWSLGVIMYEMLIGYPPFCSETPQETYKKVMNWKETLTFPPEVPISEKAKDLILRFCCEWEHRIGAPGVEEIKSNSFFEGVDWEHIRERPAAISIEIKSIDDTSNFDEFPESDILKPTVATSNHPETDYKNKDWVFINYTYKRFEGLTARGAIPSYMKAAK
Chain of PIK3CA (P42336 whole entry): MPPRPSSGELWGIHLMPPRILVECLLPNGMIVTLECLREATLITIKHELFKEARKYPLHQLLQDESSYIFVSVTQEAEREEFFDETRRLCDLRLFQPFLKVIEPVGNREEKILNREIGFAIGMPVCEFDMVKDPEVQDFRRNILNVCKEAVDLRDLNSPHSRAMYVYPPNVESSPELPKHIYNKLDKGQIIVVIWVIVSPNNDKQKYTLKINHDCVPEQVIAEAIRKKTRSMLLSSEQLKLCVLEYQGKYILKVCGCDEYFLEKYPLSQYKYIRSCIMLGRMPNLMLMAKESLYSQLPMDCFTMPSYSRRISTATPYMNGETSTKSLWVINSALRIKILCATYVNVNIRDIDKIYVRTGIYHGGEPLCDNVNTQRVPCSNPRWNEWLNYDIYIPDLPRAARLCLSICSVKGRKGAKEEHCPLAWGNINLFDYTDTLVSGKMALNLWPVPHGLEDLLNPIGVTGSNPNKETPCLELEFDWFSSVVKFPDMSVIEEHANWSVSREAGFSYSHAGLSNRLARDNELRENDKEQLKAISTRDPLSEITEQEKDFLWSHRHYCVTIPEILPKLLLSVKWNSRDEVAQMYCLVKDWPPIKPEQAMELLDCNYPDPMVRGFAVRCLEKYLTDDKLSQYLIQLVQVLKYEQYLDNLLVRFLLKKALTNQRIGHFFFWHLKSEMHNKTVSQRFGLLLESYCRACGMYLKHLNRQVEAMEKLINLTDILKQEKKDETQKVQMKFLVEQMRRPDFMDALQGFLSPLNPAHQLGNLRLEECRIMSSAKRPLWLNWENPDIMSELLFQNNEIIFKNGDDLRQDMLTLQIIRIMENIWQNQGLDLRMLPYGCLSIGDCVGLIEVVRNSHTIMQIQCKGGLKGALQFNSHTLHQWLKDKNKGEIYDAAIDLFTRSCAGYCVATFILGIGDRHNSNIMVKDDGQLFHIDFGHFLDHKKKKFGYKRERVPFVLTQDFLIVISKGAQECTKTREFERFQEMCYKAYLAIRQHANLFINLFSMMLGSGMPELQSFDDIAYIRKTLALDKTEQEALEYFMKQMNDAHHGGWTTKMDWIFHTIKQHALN
Chain of PIK3CA (P27986 whole entry partner): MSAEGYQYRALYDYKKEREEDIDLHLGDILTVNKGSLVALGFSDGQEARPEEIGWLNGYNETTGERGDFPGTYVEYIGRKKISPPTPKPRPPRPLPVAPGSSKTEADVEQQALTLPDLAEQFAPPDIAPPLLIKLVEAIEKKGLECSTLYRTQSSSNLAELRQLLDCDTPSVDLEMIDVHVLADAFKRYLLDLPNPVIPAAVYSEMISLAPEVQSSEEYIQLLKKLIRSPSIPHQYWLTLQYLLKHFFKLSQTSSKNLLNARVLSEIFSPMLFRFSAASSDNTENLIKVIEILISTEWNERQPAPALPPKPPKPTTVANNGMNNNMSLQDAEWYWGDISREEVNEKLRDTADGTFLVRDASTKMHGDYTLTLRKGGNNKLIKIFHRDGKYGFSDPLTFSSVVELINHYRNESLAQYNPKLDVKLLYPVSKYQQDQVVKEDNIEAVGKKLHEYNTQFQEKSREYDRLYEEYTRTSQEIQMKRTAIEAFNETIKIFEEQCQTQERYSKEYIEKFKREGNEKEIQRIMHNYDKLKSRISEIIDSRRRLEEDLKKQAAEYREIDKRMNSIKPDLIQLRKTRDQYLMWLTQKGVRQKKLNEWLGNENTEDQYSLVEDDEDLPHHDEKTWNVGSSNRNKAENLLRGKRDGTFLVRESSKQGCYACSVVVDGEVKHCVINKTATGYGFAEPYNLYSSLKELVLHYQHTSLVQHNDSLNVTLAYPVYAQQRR
Chain of STK38L (NDR2) (Q9Y2H1 whole entry): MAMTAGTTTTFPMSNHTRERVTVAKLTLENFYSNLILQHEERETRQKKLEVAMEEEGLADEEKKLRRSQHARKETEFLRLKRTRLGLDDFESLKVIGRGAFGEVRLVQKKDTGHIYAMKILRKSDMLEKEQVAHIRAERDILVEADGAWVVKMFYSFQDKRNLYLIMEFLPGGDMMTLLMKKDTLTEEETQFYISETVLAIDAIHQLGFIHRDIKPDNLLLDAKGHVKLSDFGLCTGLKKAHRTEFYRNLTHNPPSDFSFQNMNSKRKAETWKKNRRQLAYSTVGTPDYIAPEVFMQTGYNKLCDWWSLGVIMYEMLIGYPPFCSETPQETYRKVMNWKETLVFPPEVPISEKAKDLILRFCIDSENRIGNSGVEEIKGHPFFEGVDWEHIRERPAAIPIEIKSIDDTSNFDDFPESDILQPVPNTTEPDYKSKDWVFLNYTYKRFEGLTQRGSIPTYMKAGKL
Chain of TTK (P33981 whole entry): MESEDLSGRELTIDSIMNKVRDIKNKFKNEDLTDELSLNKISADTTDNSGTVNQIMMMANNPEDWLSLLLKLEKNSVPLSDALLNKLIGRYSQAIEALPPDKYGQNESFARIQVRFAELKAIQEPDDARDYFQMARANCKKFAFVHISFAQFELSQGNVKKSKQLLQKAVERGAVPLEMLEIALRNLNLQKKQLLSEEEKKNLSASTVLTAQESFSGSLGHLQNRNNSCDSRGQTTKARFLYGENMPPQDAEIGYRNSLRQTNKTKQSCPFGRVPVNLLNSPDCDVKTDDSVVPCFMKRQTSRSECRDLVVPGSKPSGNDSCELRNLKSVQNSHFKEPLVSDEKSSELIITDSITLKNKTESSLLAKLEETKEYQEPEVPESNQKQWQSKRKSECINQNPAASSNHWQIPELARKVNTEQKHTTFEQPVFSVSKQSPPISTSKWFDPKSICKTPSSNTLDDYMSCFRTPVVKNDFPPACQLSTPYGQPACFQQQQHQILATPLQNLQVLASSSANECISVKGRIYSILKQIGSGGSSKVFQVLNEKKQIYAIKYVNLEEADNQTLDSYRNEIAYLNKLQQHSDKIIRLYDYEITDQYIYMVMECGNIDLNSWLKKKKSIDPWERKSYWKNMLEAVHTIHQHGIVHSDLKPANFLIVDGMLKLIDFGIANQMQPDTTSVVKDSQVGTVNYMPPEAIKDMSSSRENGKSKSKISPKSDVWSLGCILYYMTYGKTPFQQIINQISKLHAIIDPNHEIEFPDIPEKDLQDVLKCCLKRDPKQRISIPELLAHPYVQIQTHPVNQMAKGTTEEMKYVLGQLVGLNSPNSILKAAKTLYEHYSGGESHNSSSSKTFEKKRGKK

With `CCCCCc1cc2cc(O)cc(Oc3c(O)cc(O)cc3CCCCC)c2c(=O)o1` [BKT300] the “% Inhibition” value (ACVRL1 (ALK1)) was 47%, the “% Inhibition” value (CDK8/cyclin C) was 64% and the “% Inhibition” value (ICK) was 41%. The “% Inhibition” value (TGFBR2) was 43%, the “% Inhibition” value (PIK3CD) was 77% and the “% Inhibition” value (MLCK (MLCK2)) was 58%. The “% Inhibition” value (KIT T670E) was 51%, the “% Inhibition” value (PIK3CA) was 64% and the “% Inhibition” value (CLK4) was 73%. The “% Inhibition” value (SRC N1) was 41%, the “% Inhibition” value (MAP4K1 (HPK1)) was 45% and the “% Inhibition” value (EPHA8) was 50%. The “% Inhibition” value (PAK7 (KIAA1264)) was 40%, the “% Inhibition” value (DYRK2) was 62% and the “% Inhibition” value (CDC7/DBF4) was 53%. The “% Inhibition” value (STK17A (DRAK1)) was 48%, the “% Inhibition” value (MAPK10 (JNK3)) was 49% and the “% Inhibition” value (KIT D820E) was 42%. For the same molecule, the “% Inhibition” value (NUAK2) was 89%, the “% Inhibition” value (BMPR1A (ALK3)) was 58% and the “% Inhibition” value (GRK4) was 63%. For the same molecule, the “% Inhibition” value (MAP4K2 (GCK)) was 48%, the “% Inhibition” value (MAP4K4 (HGK)) was 40% and the “% Inhibition” value (STK38L (NDR2)) was 45%. The “% Inhibition” value (CDK1/cyclin A2) was 45%, the “% Inhibition” value (TTK) was 52% and the “% Inhibition” value (MYLK (MLCK)) was 63%. The “% Inhibition” value (DAPK1) was 43%, the “% Inhibition” value (STK38 (NDR)) was 41% and the “% Inhibition” value (GRK5) was 65%. The “% Inhibition” value (DYRK3) was 47%, the “Inhibition of migration of Jurkat cells towards SDF-1” value (SDF-1; BKT300 at 78% purity) was “significantly inhibited” and the “Inhibition of migration of Jurkat cells towards SDF-1” value (SDF-1; BKT300 at 98% purity) was “significantly inhibited”.
